# Assay results from patent US8637310B2, “Use of a rock inhibitor to sustain primary human keratinocytes in a proliferative state” (The United States of America, as represented by the …, priority 2008, dated 2014).
# Assays:
# [1] = tested on: human vaginal keratinocytes (HVK); assay: Long-term culture / immortalization of primary human vaginal keratinocytes on feeder cells; type: cell-based; conditions: 10 μM Y-27632; FIG. 9
# Description: The HPV18 cell line was established by introducing the HPV18 genome into primary HFKs using the Amaxa human keratinocyte nucleofection system. Primary human cervical keratinocytes (HCKs), human vaginal keratinocytes (HVKs), the HPV18 cell lines and the HPV31 positive cell line (CIN-612 9E) were grown in the presence or absence of 10 μM Y-27632 (Alexis Biochemicals), as indicated. Cells were subcultured by removing the fibroblast feeder cells with versene and keratinocytes were collected by trypsinization. At each pass, 2×10^5 cells were plated on a 10 cm plate of J2 feeder cells. Population doubling was calculated as: PD=3.32(log(# cells harvested/# cells seeded)). Immunodetection
# HPV31 [2] = assay: HPV DNA replication assay (Southern blot) in transfected primary keratinocytes, HPV31; type: cell-based, human papillomavirus; conditions: 10 μM Y-27632; two and five days post-electroporation; FIG. 5
# Description: (§1) Cloned viral genomes were cleaved with restriction enzymes to separate viral and vector sequences. The genomes were religated at a concentration of 5 μg/ml to favor intramolecular circularization. Prior to electroporation, J2 feeder cells were removed from the keratinocytes by versene treatment and the HFKs were collected by trypsinization. HFKs (1×10^6) were electroporated with 2 μg of re-circularized viral genomic DNA using the Amaxa Nucleofector II electroporator and the Human Keratinocyte Nucleofector Kit. The Amaxa program optimized for cell survival was used according to the manufacturer's specifications. Cells were removed from the cuvettes immediately following electroporation, and seeded onto 10 cm plates containing irradiated feeder cells and F-medium, in the presence or absence of 10 μM Y-27632, as indicated. At various times post-transfection, low molecular weight DNA was isolated by a modified Hirt extraction procedure (Ustav et al., EMBO J. 10:449-457, 1991). For Southern blot analysis, the isolated DNA was linearized with EcoRI or BamHI, depending on cloning site for each viral genome, and DpnI, to digest any unreplicated input DNA. DNA fragments were separated by agarose gel electrophoresis followed by Southern blot hybridization. […]
# HPV6 = assay: HPV DNA replication assay (Southern blot) in transfected primary keratinocytes, HPV6; type: cell-based, human papillomavirus; conditions: 10 μM Y-27632, FIG. 6
# Description: as §1
# W12 cells (20863 clone) = assay: Growth of CIN1-derived cell line W12; type: cell-based, human; conditions: 10 μM Y-27632; 44 days; FIG. 7
# Description: The 9E and […] (20863 clone) cell lines were cultured in F-media on irradiated J2 feeder cells. For the Y-27632 experiments they were cultured in F-medium with or without 10 μM Y-27632 and continually passed for the times indicated.
# HPV31 [3] = assay: HPV31 genome copy number in CIN612 9E cells; type: cell-based, human papillomavirus; conditions: 10 μM Y-27632, FIG. 8
# Description: The 9E and W12 (20863 clone) cell lines were cultured in F-media on irradiated J2 feeder cells. For the Y-27632 experiments they were cultured in F-medium with or without 10 μM Y-27632 and continually passed for the times indicated.
# as §1, with “DNA.” for “DNA. DNA fragments were separated by agarose gel electrophoresis followed by Southern blot hybridization.”
# foreskin keratinocytes = assay: Foreskin keratinocytes grown without fibroblast feeder cells, on plastic, serum-free medium; type: cell-based, human; conditions: no fibroblast feeder cells
# Description: Culturing keratinocytes in the presence of fibroblast feeder cells increases the lifespan of keratinocytes (Fu et al., Cancer Res. 63: 7815-7824, 2003; Rheinwald et al., Mol. Cell Biol. 22: 5157-5172, 2002) and might contribute to the observed immortalization by Y-27632. Therefore, the effect of Y-27632 on foreskin keratinocytes grown in the absence of fibroblast feeder cells, cultured on plastic and in serum-free medium was analyzed. […] Therefore, co-culture with feeder fibroblasts is required in concert with ROCK inhibition to immortalize keratinocytes.
# [4] = tested on: foreskin keratinocyte line (strain a); assay: Karyotype analysis of immortalized cells; type: cell-based, human; conditions: HFK strain a, 95 passages in Y-27632
# Description: This was conducted by Molecular Diagnostic Services, Inc. San Diego, Calif. Metaphase spreads were prepared and stained to observe chromosomal G bands.
# Twenty metaphase spreads of each cell line was analyzed and five complete karyotypes were prepared from each.
# hTERT mRNA = assay: Real time QRT-PCR of hTERT mRNA; type: cell-based, human
# Description: Total cellular RNA was isolated with TRIZol™ reagent (Invitrogen, Carlsbad, Calif.) and treated with DNA-free kit (Ambion, Austin, Tex.). First-strand cDNA was synthesized from 8 μg of total cellular RNA using the Superscript III First-Strand Synthesis System (Invitrogen, Carlsbad, Calif.). RNase H-treated cDNA from 20 ng RNA was amplified by quantitative real time PCR using the Taqman Gene Expression Assay for hTERT (Assay ID: Hs00972646_m1, Applied Biosystems) spanning exons 14 and 15 and human RPLP0 (large ribosomal protein) endogenous control, VIC/MGB Probe, primer limited (Applied Biosystems). All samples were run in triplicate using the ABI 7900HT system and the amount of product was calculated with reference to standard curves generated by 4-fold serial dilutions of a mixed set of cDNAs with high telomerase expression. Values were adjusted relative to the level of RPO transcripts.
# p16^INK4a = assay: Immunodetection of p16INK4a; type: cell-based, human
# Description: (§2) Proteins were extracted in 2% sodium dodecyl sulfate (SDS), 50 mM Tris-HCl (pH 6.8), 10% glycerol supplemented with inhibitors Complete and PhosphoSTOP (Roche, Indianapolis, Ind.). Protein samples were resolved on NuPage gels, electrotransferred to Immobilon-P membrane (Millipore, Billerica, Mass.), and probed with the relevant antibodies before detection by chemiluminescence. Monoclonal antibody against p53 (DO-1) was obtained from Santa Cruz Biotechnology (Santa Cruz, Calif.). Monoclonal antibody against α-tubulin (B-5-1-2) was obtained from Sigma-Aldrich. Polyclonal antibodies against Myc (N-262), p21 (C-19), and p16 (C-20) were obtained from Santa Cruz Biotechnology.
# Myc = assay: Immunodetection of Myc; type: cell-based, human
# Description: as §2
# p53 = assay: Immunodetection of p53 and p21 during culture; type: cell-based, human; conditions: keratinocytes cultured with Y-27632
# Description: as §2
smiles,measurement,setting,value
"CC(N)[C@H]1CC[C@H](C(=O)Nc2ccncc2)CC1 (single isomer, unassigned; (+)) [Y-27632, (+)-trans-N-(4-Pyridyl)-4-(1-aminoethyl)-cyclohexanecarboxamide]",bypass of senescence,[1],efficiently bypassed senescence with no observed decline in growth rate
same,cellular proliferation,[1],dramatic increase in cellular proliferation
same,efficiency of HPV replication,HPV31 [2],greatly increased the efficiency of HPV replication up to five days
same,"HPV6 viral DNA levels, long-term assay",HPV6; after three passes,the levels of viral DNA declined
same,"efficiency of HPV6 replication, long-term assay",HPV6; up to three passes,greatly increased the efficiency of replication and robust levels of viral DNA were present after three passes
same,growth rate,W12 cells (20863 clone),no differences in growth rate were observed
same,HPV31 copy number,HPV31 [3],remained constant
same,proliferation in the absence of feeder cells,foreskin keratinocytes,somewhat increased proliferation
same,bypass of senescence in the absence of feeder cells,foreskin keratinocytes; repeated experiments,did not bypass senescence
same,karyotype of immortalized cells,[4],identical to that of the donor cells
same,level of hTERT mRNA versus HPV18-immortalized keratinocytes,hTERT mRNA; by passage 34 in Y-27632,comparable to those in HPV18-immortalized keratinocytes
same,level of hTERT mRNA,"hTERT mRNA; foreskin keratinocytes with passage in Y-27632, FIG. 11A",increased with passage
same,p16^INK4a levels,p16^INK4a; HPV immortalized cells,no effect
same,p16^INK4a mRNA and protein expression,"p16^INK4a; after long-term culture with Y-27632, FIG. 12A","still observed, albeit at a low level"
same,Myc protein levels,"Myc; immediately after culture with Y-27632, HFK, HCK, HVK, FIG. 12A",induced transiently
same,level of Myc,"Myc; very late passages (p107), FIG. 16",equivalent to that of an HPV31-containing cell line
same,p21 induction,p53,not induced
same,p53 protein levels,p53,gradually increase
